ChEMBL document CHEMBL4118196, “Design and synthesis of a series of bioavailable fatty acid synthase (FASN) KR domain inhibitors for cancer therapy” (Bioorg Med Chem Lett, 2018)
pEC50, pIC50: −log10 of the molar value.

Tests used:
Fatty acid synthase = Fatty acid synthase (Homo sapiens, UniProt P49327)
Description: Inhibition of human full length FASN using [3H]-acetyl-CoA/malonyl-CoA as substrate after 60 mins in presence of NADPH by scintillation proximity assay

A2780 [1] = test: Antiproliferative activity against human A2780 cells in culture medium with 10% lipid-reduced serum after 4 days by MTT assay; assay type: functional, cell-based; details: A2780, 96 h
K562 [2] = test: Antiproliferative activity against human K562 cells in culture medium with 10% lipid-reduced serum after 4 days by ATP-Glo assay; assay type: functional, cell-based; details: K562, 96 h
PC-3M = test: Antiproliferative activity against human PC3M cells in culture medium with 10% lipid-reduced serum after 4 days by ATP-Glo assay; assay type: functional, cell-based; details: 96 h
LNCaP = test: Antiproliferative activity against human LNCAP cells in culture medium with 10% lipid-reduced serum after 4 days by ATP-Glo assay; assay type: functional, cell-based; details: 96 h
OCI-Ly1 [3] = test: Antiproliferative activity against human OCI-LY1 cells in culture medium with 10% lipid-reduced serum after 4 days by ATP-Glo assay; assay type: functional, cell-based; details: OCI-Ly1, 96 h
HL-60 [4] = test: Antiproliferative activity against human HL60 cells in culture medium with 10% lipid-reduced serum after 4 days by ATP-Glo assay; assay type: functional, cell-based; details: HL-60, 96 h
U2932 [5] = test: Antiproliferative activity against human U2932 cells in culture medium with 10% lipid-reduced serum after 4 days by ATP-Glo assay; assay type: functional, cell-based; details: U2932, 96 h
[6] = Antiproliferative activity against human MM1R cells in culture medium with 10% lipid-reduced serum after 4 days by ATP-Glo assay; assay type: functional, cell-based; details: MM.1R, 96 h
NCI-H929 [7] = test: Antiproliferative activity against human NCI-H929 cells in culture medium with 10% lipid-reduced serum after 4 days by ATP-Glo assay; assay type: functional, cell-based; details: NCI-H929, 96 h
MV4-11 [8] = test: Antiproliferative activity against human MV4-11 cells in culture medium with 10% lipid-reduced serum after 4 days by ATP-Glo assay; assay type: functional, cell-based; details: MV4-11, 96 h
NCI-H460 [9] = test: Antiproliferative activity against human NCI-H460 cells in culture medium with 10% lipid-reduced serum after 4 days by ATP-Glo assay; assay type: functional, cell-based; details: NCI-H460, 96 h
HT-29 = test: Antiproliferative activity against human HT-29 cells in culture medium with 10% lipid-reduced serum after 4 days by ATP-Glo assay; assay type: functional, cell-based; details: HT-29, 96 h
A549 [10] = test: Antiproliferative activity against human A549 cells in culture medium with 10% lipid-reduced serum after 4 days by ATP-Glo assay; assay type: functional, cell-based; details: A549, 96 h
[11] = Antiproliferative activity against human LL cells in culture medium with 10% lipid-reduced serum after 4 days by ATP-Glo assay; assay type: functional, cell-based; details: 96 h
MDA-MB-468 [12] = test: Antiproliferative activity against human MDA-MB-468 cells in culture medium with 10% lipid-reduced serum after 4 days by ATP-Glo assay; assay type: functional, cell-based; details: MDA-MB-468, 96 h
A2780 [13] = test: Antiproliferative activity against human A2780 cells in culture medium with 10% lipid-reduced serum after 4 days in presence of palmitate by MTT assay; assay type: functional, cell-based; details: A2780, 96 h
K562 [14] = test: Antiproliferative activity against human K562 cells in culture medium with 10% lipid-reduced serum after 4 days in presence of palmitate by ATP-Glo assay; assay type: functional, cell-based; details: K562, 96 h
OCI-Ly1 [15] = test: Antiproliferative activity against human OCI-LY1 cells in culture medium with 10% lipid-reduced serum after 4 days in presence of palmitate by ATP-Glo assay; assay type: functional, cell-based; details: OCI-Ly1, 96 h
HL-60 [16] = test: Antiproliferative activity against human HL60 cells in culture medium with 10% lipid-reduced serum after 4 days in presence of palmitate by ATP-Glo assay; assay type: functional, cell-based; details: HL-60, 96 h
U2932 [17] = test: Antiproliferative activity against human U2932 cells in culture medium with 10% lipid-reduced serum after 4 days in presence of palmitate by ATP-Glo assay; assay type: functional, cell-based; details: U2932, 96 h
[18] = Antiproliferative activity against human MM1R cells in culture medium with 10% lipid-reduced serum after 4 days in presence of palmitate by ATP-Glo assay; assay type: functional, cell-based; details: MM.1R, 96 h
U-266 = test: Antiproliferative activity against human U266 cells in culture medium with 10% lipid-reduced serum after 4 days in presence of palmitate by ATP-Glo assay; assay type: functional, cell-based; details: U-266, 96 h
NCI-H929 [19] = test: Antiproliferative activity against human NCI-H929 cells in culture medium with 10% lipid-reduced serum after 4 days in presence of palmitate by ATP-Glo assay; assay type: functional, cell-based; details: NCI-H929, 96 h
MV4-11 [20] = test: Antiproliferative activity against human MV4-11 cells in culture medium with 10% lipid-reduced serum after 4 days in presence of palmitate by ATP-Glo assay; assay type: functional, cell-based; details: MV4-11, 96 h
NCI-H460 [21] = test: Antiproliferative activity against human NCI-H460 cells in culture medium with 10% lipid-reduced serum after 4 days in presence of palmitate by ATP-Glo assay; assay type: functional, cell-based; details: NCI-H460, 96 h
BT-20 = test: Antiproliferative activity against human BT20 cells in culture medium with 10% lipid-reduced serum after 4 days in presence of palmitate by ATP-Glo assay; assay type: functional, cell-based; details: BT-20, 96 h
A549 [22] = test: Antiproliferative activity against human A549 cells in culture medium with 10% lipid-reduced serum after 4 days in presence of palmitate by ATP-Glo assay; assay type: functional, cell-based; details: A549, 96 h
[23] = Antiproliferative activity against human LL cells in culture medium with 10% lipid-reduced serum after 4 days in presence of palmitate by ATP-Glo assay; assay type: functional, cell-based; details: 96 h
MDA-MB-468 [24] = test: Antiproliferative activity against human MDA-MB-468 cells in culture medium with 10% lipid-reduced serum after 4 days in presence of palmitate by ATP-Glo assay; assay type: functional, cell-based; details: MDA-MB-468, 96 h
LP-1 = test: Antiproliferative activity against human LP-1 cells in culture medium with 10% lipid-reduced serum after 4 days in presence of palmitate by ATP-Glo assay; assay type: functional, cell-based; details: LP-1, 96 h
Cytochrome P450 1A2 = Cytochrome P450 1A2 (Homo sapiens, UniProt P05177); test: Inhibition human CYP1A2; assay type: ADME
Cytochrome P450 1A2, sequence (P05177 whole entry): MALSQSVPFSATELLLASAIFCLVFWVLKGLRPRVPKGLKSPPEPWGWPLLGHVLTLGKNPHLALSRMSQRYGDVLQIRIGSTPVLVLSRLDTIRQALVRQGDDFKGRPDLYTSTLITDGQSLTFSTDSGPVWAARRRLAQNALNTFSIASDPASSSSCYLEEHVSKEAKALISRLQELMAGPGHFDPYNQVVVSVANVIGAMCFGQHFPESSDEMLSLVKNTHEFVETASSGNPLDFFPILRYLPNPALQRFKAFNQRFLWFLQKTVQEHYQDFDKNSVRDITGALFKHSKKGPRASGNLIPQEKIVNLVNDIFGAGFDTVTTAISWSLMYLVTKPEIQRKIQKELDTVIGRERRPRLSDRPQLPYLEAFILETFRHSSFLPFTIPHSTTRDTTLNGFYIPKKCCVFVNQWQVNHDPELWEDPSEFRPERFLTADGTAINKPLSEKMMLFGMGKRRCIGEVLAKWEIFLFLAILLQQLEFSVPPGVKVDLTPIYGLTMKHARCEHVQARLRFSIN

Cytochrome P450 2C8 = Cytochrome P450 2C8 (Homo sapiens, UniProt P10632); test: Inhibition of human CYP2C8; assay type: ADME
Cytochrome P450 2C8, sequence (P10632 whole entry): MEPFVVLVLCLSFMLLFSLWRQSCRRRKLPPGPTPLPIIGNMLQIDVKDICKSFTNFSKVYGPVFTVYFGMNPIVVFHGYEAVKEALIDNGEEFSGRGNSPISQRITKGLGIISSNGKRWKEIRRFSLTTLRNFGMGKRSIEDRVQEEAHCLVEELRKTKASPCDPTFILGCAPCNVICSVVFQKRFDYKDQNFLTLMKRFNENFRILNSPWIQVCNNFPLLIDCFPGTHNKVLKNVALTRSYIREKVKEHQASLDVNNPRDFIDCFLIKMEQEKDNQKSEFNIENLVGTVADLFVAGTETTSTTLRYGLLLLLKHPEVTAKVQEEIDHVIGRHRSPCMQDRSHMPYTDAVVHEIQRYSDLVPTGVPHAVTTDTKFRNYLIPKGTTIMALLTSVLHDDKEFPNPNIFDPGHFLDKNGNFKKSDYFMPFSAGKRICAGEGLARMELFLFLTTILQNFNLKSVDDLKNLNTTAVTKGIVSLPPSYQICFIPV

Cytochrome P450 2C19 = Cytochrome P450 2C19 (Homo sapiens, UniProt P33261); test: Inhibition of human CYP2C19; assay type: ADME
Cytochrome P450 2C19, sequence (P33261 whole entry): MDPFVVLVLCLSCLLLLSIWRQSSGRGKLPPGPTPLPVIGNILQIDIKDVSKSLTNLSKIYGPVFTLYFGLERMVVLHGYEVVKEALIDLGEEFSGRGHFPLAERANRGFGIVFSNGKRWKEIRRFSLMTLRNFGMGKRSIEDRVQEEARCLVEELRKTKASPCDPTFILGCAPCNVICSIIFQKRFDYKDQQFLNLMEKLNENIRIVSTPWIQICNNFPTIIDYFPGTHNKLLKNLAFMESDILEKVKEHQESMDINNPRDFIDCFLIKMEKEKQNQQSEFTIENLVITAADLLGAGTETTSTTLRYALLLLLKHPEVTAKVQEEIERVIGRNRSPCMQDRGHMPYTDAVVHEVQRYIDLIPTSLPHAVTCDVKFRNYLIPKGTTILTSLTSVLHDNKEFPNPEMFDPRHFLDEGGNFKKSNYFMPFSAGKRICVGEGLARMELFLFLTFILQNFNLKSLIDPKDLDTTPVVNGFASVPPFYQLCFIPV

Cytochrome P450 2D6 = Cytochrome P450 2D6 (Homo sapiens, UniProt P10635); test: Inhibition of human CYP2D6; assay type: ADME
Cytochrome P450 2D6, sequence (P10635 whole entry): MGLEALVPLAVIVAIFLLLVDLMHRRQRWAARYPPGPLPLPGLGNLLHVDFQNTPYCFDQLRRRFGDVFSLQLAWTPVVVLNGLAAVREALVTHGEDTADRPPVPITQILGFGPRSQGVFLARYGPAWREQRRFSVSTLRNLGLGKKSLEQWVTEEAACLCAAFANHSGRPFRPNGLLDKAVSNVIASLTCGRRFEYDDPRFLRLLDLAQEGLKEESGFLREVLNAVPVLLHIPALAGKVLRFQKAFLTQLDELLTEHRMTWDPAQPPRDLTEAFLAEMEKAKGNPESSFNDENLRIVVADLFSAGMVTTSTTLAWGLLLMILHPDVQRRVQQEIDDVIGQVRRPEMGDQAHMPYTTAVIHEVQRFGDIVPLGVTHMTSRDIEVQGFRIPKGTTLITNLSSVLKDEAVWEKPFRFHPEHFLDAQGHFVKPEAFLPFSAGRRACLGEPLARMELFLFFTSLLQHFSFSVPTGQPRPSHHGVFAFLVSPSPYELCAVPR

Cytochrome P450 3A4 = Cytochrome P450 3A4 (Homo sapiens, UniProt P08684); test: Inhibition of human CYP3A4; assay type: ADME
Cytochrome P450 2C9 = Cytochrome P450 2C9 (Homo sapiens, UniProt P11712); test: Inhibition of human CYP2C9; assay type: ADME
Cytochrome P450 2C9, sequence (P11712 whole entry): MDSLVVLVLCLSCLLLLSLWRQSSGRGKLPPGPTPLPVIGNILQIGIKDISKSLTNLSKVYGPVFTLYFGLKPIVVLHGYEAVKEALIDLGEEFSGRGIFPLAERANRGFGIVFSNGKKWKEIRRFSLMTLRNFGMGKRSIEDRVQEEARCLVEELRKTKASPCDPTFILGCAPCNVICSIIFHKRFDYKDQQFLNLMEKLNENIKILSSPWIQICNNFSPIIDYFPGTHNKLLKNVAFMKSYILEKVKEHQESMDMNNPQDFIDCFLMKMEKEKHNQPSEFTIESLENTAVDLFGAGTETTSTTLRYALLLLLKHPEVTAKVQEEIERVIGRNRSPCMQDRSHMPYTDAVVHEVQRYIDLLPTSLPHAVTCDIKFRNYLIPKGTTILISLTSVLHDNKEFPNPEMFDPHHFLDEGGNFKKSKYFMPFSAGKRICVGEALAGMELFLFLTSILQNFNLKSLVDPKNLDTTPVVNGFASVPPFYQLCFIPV

[25] = Stability in mouse microsomes; assay type: ADME, Microsome
[26] = Permeability in human Caco2 cells; assay type: ADME, cell-based; details: Caco-2, read-out: permeability
[27] = Stability in mouse plasma; assay type: ADME, cell-free
[28] = Protein binding in human plasma; assay type: ADME, cell-free; details: read-out: PPB (converted)
[29] = Protein binding in mouse plasma; assay type: ADME, cell-free; details: read-out: PPB (converted)
[30] = Tmax in mouse at 10 mg/kg, po; assay type: ADME, organism-based; details: in vivo
[31] = Half life in mouse at 10 mg/kg, po; assay type: ADME, organism-based; details: in vivo
[32] = Cmax in mouse at 10 mg/kg, po; assay type: ADME, organism-based; design: dose 10 mg/kg, route oral; details: in vivo
[33] = AUC in mouse at 10 mg/kg, po; assay type: ADME, organism-based; details: in vivo
[34] = Oral bioavailability in mouse at 10 mg/kg; assay type: ADME, organism-based; details: in vivo

Fatty acid synthase, sequence (P49327 whole entry): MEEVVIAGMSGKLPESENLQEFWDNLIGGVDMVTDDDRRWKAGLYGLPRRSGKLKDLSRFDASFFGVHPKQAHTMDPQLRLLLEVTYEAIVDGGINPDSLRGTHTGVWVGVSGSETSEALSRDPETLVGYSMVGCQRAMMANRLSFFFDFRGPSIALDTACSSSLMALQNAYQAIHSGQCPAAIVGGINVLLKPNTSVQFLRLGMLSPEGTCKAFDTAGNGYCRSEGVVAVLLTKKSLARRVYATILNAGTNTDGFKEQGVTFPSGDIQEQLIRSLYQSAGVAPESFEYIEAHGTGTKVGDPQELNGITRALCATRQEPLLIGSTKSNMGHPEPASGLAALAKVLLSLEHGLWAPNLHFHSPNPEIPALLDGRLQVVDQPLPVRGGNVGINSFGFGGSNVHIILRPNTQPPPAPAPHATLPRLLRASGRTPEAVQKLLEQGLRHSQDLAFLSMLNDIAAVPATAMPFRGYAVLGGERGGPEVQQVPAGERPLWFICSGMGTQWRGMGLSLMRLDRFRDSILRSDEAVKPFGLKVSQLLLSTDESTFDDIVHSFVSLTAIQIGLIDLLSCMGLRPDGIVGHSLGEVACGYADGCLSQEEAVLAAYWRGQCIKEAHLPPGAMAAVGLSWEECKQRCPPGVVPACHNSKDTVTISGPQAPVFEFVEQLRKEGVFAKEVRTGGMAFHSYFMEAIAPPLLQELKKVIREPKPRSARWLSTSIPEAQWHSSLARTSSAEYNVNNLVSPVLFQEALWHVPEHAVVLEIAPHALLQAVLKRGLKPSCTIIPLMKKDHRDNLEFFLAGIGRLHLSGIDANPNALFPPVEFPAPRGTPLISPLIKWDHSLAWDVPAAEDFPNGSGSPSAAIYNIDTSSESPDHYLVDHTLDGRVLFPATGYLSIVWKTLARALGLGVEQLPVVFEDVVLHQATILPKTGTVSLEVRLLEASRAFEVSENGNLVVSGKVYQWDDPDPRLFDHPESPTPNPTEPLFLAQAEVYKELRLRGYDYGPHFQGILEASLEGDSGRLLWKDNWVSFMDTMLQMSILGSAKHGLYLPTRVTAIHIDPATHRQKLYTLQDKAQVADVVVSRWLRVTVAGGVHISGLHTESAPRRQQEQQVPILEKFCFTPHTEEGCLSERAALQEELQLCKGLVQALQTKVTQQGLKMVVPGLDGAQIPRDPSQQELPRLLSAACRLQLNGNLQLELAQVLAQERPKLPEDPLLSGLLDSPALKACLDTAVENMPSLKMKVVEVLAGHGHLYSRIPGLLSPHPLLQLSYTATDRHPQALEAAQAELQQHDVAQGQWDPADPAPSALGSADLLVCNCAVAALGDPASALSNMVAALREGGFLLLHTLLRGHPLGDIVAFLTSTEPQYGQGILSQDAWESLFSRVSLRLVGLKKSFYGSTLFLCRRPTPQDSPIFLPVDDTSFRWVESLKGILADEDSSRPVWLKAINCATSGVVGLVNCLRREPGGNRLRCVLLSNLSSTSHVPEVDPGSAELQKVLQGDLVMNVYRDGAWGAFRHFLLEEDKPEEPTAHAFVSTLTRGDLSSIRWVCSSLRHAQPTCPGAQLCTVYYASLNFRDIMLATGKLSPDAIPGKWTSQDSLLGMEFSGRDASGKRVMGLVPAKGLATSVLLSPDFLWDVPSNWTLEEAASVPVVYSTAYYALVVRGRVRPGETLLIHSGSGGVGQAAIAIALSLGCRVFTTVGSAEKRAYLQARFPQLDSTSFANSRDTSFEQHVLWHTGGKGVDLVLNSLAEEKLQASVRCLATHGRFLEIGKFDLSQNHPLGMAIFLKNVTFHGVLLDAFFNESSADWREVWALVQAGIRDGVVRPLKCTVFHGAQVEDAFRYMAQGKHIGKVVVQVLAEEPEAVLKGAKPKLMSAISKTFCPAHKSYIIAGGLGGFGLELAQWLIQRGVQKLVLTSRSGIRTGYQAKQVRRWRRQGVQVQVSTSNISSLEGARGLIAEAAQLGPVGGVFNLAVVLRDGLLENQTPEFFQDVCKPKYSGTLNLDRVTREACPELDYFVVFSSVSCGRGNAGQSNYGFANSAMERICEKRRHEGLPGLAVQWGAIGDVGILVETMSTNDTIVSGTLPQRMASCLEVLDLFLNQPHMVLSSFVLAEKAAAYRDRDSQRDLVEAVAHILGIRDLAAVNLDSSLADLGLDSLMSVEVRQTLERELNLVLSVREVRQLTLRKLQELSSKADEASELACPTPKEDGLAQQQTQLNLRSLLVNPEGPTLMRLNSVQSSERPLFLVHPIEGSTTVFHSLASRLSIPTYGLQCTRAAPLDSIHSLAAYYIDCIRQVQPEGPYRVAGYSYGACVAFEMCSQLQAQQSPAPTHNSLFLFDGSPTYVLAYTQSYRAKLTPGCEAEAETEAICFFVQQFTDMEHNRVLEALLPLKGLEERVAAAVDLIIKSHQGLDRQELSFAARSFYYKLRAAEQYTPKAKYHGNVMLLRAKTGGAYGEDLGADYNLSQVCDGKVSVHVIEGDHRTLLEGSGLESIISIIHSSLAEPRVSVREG

O=C(CC(F)(F)F)N1CC[C@@H](CN2C(=O)C3(CC3)N=C2c2ccc(-c3ccc4occc4c3)cc2)C1
pIC50 (Fatty acid synthase): 6.77

N#CC1(C(=O)N2CC[C@@H](CN3C(=O)C4(CC4)N=C3c3ccc(-c4ccc5occc5c4)cc3)C2)CC1
pIC50 (Fatty acid synthase): 6.23

Cn1ncc2cc(-c3cnc(C4=NC5(CC5)C(=O)N4C[C@@H]4CCN(C(=O)C5CC5)C4)nc3)ccc21
pIC50 (Fatty acid synthase): 4.48

CC1(C(=O)N2CC[C@@H](CN3C(=O)C4(CC4)N=C3c3ccc(-c4ccc5occc5c4)cc3)C2)CC1
pIC50 (Fatty acid synthase): 7.55

Cn1ccc(C(=O)N2CC[C@@H](CN3C(=O)C4(CC4)N=C3c3ccc(-c4ccc5occc5c4)cc3)C2)n1
pIC50 (Fatty acid synthase): 6.35

O=C(N1CC[C@@H](CN2C(=O)C3(CC3)N=C2c2ccc(-c3ccc4occc4c3)cc2)C1)C1(O)CC1
pIC50 (Fatty acid synthase): 7.44

O=C([C@H]1CCCO1)N1CC[C@@H](CN2C(=O)C3(CC3)N=C2c2ccc(-c3ccc4occc4c3)cc2)C1
pIC50 (Fatty acid synthase): 6.52

O=C(C1CC1)N1CC[C@@H](CN2C(=O)C3(CC3)N=C2c2ccc(-c3ccc(-c4ccncc4)cc3)cc2)C1
pIC50 (Fatty acid synthase): 7.64

O=C([C@@H]1CCCO1)N1CC[C@@H](CN2C(=O)C3(CC3)N=C2c2ccc(-c3ccc4occc4c3)cc2)C1
pIC50 (Fatty acid synthase): 7.10

Cn1cc(-c2ccc(-c3ccc(C4=NC5(CC5)C(=O)N4C[C@@H]4CCN(C(=O)C5CC5)C4)cc3)cc2)cn1
pEC50 (A2780 [1]): 7.89
pEC50 (K562 [2]): 6.96
pEC50 (PC-3M): 7.60
pEC50 (LNCaP): 7.18
pEC50 (OCI-Ly1 [3]): 7.26
pEC50 (HL-60 [4]): 6.92
pEC50 (U2932 [5]): 6.72
pEC50 [6]: 6.77
pEC50 (NCI-H929 [7]): 5.43
pEC50 (MV4-11 [8]): 7.23
pEC50 (NCI-H460 [9]): 7.44
pEC50 (HT-29): 5.10
pEC50 (A549 [10]): 7.70
pEC50 [11]: 6.23
pEC50 (MDA-MB-468 [12]): 7.59
pEC50 (A2780 [13]): < 5.00
pEC50 (K562 [14]): 5.03
pEC50 (OCI-Ly1 [15]): 5.17
pEC50 (HL-60 [16]): 5.20
pEC50 (U2932 [17]): 5.52
pEC50 [18]: < 5.00
pEC50 (U-266): < 5.00
pEC50 (NCI-H929 [19]): < 5.00
pEC50 (MV4-11 [20]): < 5.00
pEC50 (NCI-H460 [21]): < 5.00
pEC50 (BT-20): < 5.00
pEC50 (A549 [22]): < 5.00
pEC50 [23]: 5.03
pEC50 (MDA-MB-468 [24]): < 5.00
pEC50 (LP-1): < 5.00
pIC50 (Cytochrome P450 1A2): < 5.00
pIC50 (Cytochrome P450 2C8): < 5.00
pIC50 (Cytochrome P450 2C19): < 5.00
pIC50 (Cytochrome P450 2D6): < 5.00
pIC50 (Cytochrome P450 3A4): < 5.00
pIC50 (Cytochrome P450 2C9): 5.10
Stability [25]: Stable
Papp [26]: 7.1 ×10⁻⁶ cm/s
Stability [27]: Stable
fraction unbound [28]: 0.059
fraction unbound [29]: 0.034
Tmax [30]: 2 h
half-life [31]: 2.5 h
Cmax [32]: 2030 ng/mL
AUC [33]: 11100 ng·h/mL
bioavailability [34]: 60.6%
